According to patent US10457707B2, “Substituted urea depsipeptide analogs as activators of the CLPP endopeptidase” (priority 2015, dated 2019):
In brackets after ≈: the same amount, converted by molar mass. Like-named read-outs stand apart in the source and are kept apart here. *1 amine or outer side, *2 acyl side, *3 side chain or, on linkers, in order; H or OH if unused. Where a SMILES comes first, the peptide text is derived from it. Bridges are numbered along the chain shown (N, C = ends). [ ]: non-standard residue; d: D form. The star is where a group is joined. ξ: configuration not given here. Phe(3,5-F2) = N[C@@H](Cc1cc(F)cc(F)c1)C(=O)O; NH(1-Me-indolin-5-yl) = CN1CCc2cc(N*)ccc21; NH(4-OCF3-phenyl) = FC(F)(F)Oc1ccc(N*)cc1; Morpholine(3S-CO) = O=C(O)[C@@H]1COCCN1; Pro(4S-Me) = C[C@@H]1CN[C@H](C(=O)O)C1; NH(4-Cl-2-F-phenyl) = Fc1cc(Cl)ccc1N*; Pro(4R-Me) = C[C@H]1CN[C@H](C(=O)O)C1; NMeaThr = CN[C@H](C(=O)O)[C@H](C)O; Hyp = O=C(O)[C@@H]1C[C@@H](O)CN1; NH(4-Me-phenyl) = Cc1ccc(N*)cc1; ξNMeThr = CNC(C(=O)O)[C@@H](C)O; aThr = C[C@H](O)[C@H](N)C(=O)O; CO = O=C([*:1])[*:2]

Assays:
Type in all cases: cell-based
[1] = system: Staphylococcus aureus, USA 300 wherein ClpP is inactivated; assay: Minimal inhibitory concentration assay
Procedure, shortened: (§1)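 Antibacterial activity was measured by CLSI-standard microdilution in broth, using overnight aerobic incubation at 37 °C. Growth inhibition was scored visually, and MIC taken as the lowest concentration preventing growth.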

[2] = system: Staphylococcus aureus, USA 300; assay: Minimal inhibitory concentration assay; settings: USA300, read-out: Minimal Inhibitory Concentrations S. aureus USA 300
Procedure, shortened: as §1

[3] = Cytotoxicity assay (CellTiter-Glo cell viability, 72 hours); settings: African green monkey
Procedure, shortened: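 Vero cells, 5000/well, grown overnight at 37° C, 5% CO2 in DMEM with 10% FBS, then exposed to serial compound dilutions or DMSO for 72 hours. Viability read by CellTiter-Glo luminescence. IC50 from duplicate wells, reported as range over two independent experiments.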

[4] = system: Streptococcus pneumoniae, R6; assay: Minimal inhibitory concentration assay; settings: read-out: Minimal Inhibitory Concentrations S. pneumoniae R6
Procedure, shortened: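 Microbroth dilution with two-fold serial compound dilutions in broth, incubated aerobically overnight at 37° C. MIC taken as the lowest concentration preventing bacterial growth.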

[5] = system: Enterococcus faecalis, ATCC 33186; assay: Minimal inhibitory concentration assay (microbroth dilution)
Procedure, shortened: as §1

[6] = Vero cells, 72 hours, growth inhibition, read-out: Cytotoxicity IC50
[7] = Enterococcus faecalis, ATCC33186, read-out: Minimal Inhibitory Concentrations E. faecalis ATCC 33186
[8] = Enterococcus faecalis, ATCC33186; read-out: Minimal Inhibitory Concentrations E. faecalis ATCC 33186

SMILES | Minimal Inhibitory Concentrations S. aureus USA 300 ΔClpP [1] | MIC [2] | IC50 at 72 h [3, 6] | MIC [4] | MIC [5, 7] | IC50 at 72 h [3] | MIC [5, 8]
C[C@@H]1C[C@H]2C(=O)O[C@@H](C)[C@H](NC(=O)[C@H](Cc3cc(F)cc(F)c3)NC(=O)Nc3ccc4c(c3)CCN4C)C(=O)N3C[C@H](O)C[C@H]3C(=O)N3CCOC[C@H]3C(=O)N[C@@H](C)C(=O)N2C1 [Compound 315, (S)-3-(3,5-difluorophenyl)-N-((6aS,8R,12S,13S,15aS,17R,21S,23aS)-8-hydroxy-13,17,21-trimethyl-6,11,15,20,23-pentaoxooctadecahydro-6H,11H,15H-[1,4]oxazino[3,4-i]dipyrrolo[2,1-c:2′,1′-l][1]oxa[4,7,10,13]tetraazacyclohexadecin-12-yl)-2-(3-(1-methylindolin-5-yl)ureido)propanamide] ({NH(1-Me-indolin-5-yl)-CO}-[Phe(3,5-F2)][aThr][Hyp][Morpholine(3S-CO)]A[Pro(4R-Me)]; ester 2-C) | >20 µM | 10 µM (≈ 8.67 µg/mL) | > 100 µM | 0.313 µM (≈ 0.271 µg/mL) | 0.625 µM (≈ 0.542 µg/mL) |  | 
C[C@@H]1C[C@H]2C(=O)O[C@@H](C)[C@H](NC(=O)[C@H](Cc3cc(F)cc(F)c3)NC(=O)Nc3ccc(Cl)cc3F)C(=O)N3C[C@H](O)C[C@H]3C(=O)N3CCOC[C@H]3C(=O)N[C@@H](C)C(=O)N2C1 [Compound 316, (S)-2-(3-(4-chloro-2-fluorophenyl)ureido)-3-(3,5-difluorophenyl)-N-((6aS,8R,12S,13S,15aS,17R,21S,23aS)-8-hydroxy-13,17,21-trimethyl-6,11,15,20,23-pentaoxooctadecahydro-6H,11H,15H-[1,4]oxazino[3,4-i]dipyrrolo[2,1-c:2′,1′-l][1]oxa[4,7,10,13]tetraazacyclo-hexadecin-12-yl)propanamide] ({NH(4-Cl-2-F-phenyl)-CO}-[Phe(3,5-F2)][aThr][Hyp][Morpholine(3S-CO)]A[Pro(4R-Me)]; ester 2-C) | >20 µM | 0.156 µM (≈ 0.135 µg/mL) |  | < 0.02 µM |  | > 100 µM | 0.078 µM (≈ 0.0674 µg/mL)
C[C@@H]1C[C@H]2C(=O)O[C@@H](C)[C@H](NC(=O)[C@H](Cc3cc(F)cc(F)c3)NC(=O)Nc3ccc(Cl)cc3F)C(=O)N3CCC[C@H]3C(=O)N(C)C([C@@H](C)O)C(=O)N[C@@H](C)C(=O)N2C1 (stereo partly drawn) [Compound 313, (S)-2-(3-(4-chloro-2-fluorophenyl)ureido)-3-(3,5-difluorophenyl)-N-((2R,6S,9R,11aS,17S,18S,20aS)-9-((R)-1-hydroxyethyl)-2,6,10,18-tetramethyl-5,8,11,16,20-pentaoxohexadecahydro-1H,5H,16H-dipyrrolo[2,1-c:2′,1′-l][1]oxa[4,7,10,13]tetraazacyclohexadecin-17-yl)propanamide] ({NH(4-Cl-2-F-phenyl)-CO}-[Phe(3,5-F2)][aThr]P[ξNMeThr]A[Pro(4R-Me)]; ester 2-C) | >20 µM | < 0.02 µM |  | < 0.02 µM |  | 13.5 ± 3.9 µM | 0.039 µM (≈ 0.0332 µg/mL)
Cc1ccc(NC(=O)N[C@@H](Cc2cc(F)cc(F)c2)C(=O)N[C@@H]2C(=O)N3CCC[C@H]3C(=O)N(C)[C@@H]([C@H](C)O)C(=O)N[C@@H](C)C(=O)N3C[C@@H](C)C[C@H]3C(=O)O[C@H]2C)cc1 [Compound 202, (S)-3-(3,5-difluorophenyl)-N-((2S,6S,9S,11aS,17S,18S,20aS)-9-((S)-1-hydroxyethyl)-2,6,10,18-tetramethyl-5,8,11,16,20-pentaoxohexadecahydro-1H,5H,16H-dipyrrolo[2,1-c:2′,1′-L][1]oxa[4,7,10,13]tetraazacyclohexadecin-17-yl)-2-(3-(p-tolyl)ureido)propanamide] ({NH(4-Me-phenyl)-CO}-[Phe(3,5-F2)][aThr]P[NMeaThr]A[Pro(4S-Me)]; ester 2-C) | 200 µM | 0.195 µM (≈ 0.158 µg/mL) | 55.7 ± 3.6 µM | 0.049 µM (≈ 0.0398 µg/mL) | 0.049 µM (≈ 0.0398 µg/mL) |  | 
C[C@H]1C[C@H]2C(=O)O[C@@H](C)[C@H](NC(=O)[C@H](Cc3cc(F)cc(F)c3)NC(=O)Nc3ccc(OC(F)(F)F)cc3)C(=O)N3CCC[C@H]3C(=O)N(C)[C@@H]([C@H](C)O)C(=O)N[C@@H](C)C(=O)N2C1 [Compound 203, (S)-3-(3,5-difluorophenyl)-N-((2S,6S,9S,11aS,17S,18S,20aS)-9-((S)-1-hydroxyethyl)-2,6,10,18-tetramethyl-5,8,11,16,20-pentaoxohexadecahydro-1H,5H,16H-dipyrrolo[2,1-c:2′,1′-l][1]oxa[4,7,10,13]tetraazacyclohexadecin-17-yl)-2-(3-(4-(trifluoromethoxy)phenyl)ureido)propanamide] ({NH(4-OCF3-phenyl)-CO}-[Phe(3,5-F2)][aThr]P[NMeaThr]A[Pro(4S-Me)]; ester 2-C) | 50 µM | 0.098 µM (≈ 0.0864 µg/mL) |  | 0.024 µM (≈ 0.0212 µg/mL) |  | 25.4 ± 1.8 µM | 0.781 µM (≈ 0.689 µg/mL)
